Data taken from patent publication US5298621A, “Oligopeptide derivatives of ipoxantine endowed with immunomodulating activity and pharmaceutical compositions containing same” (Sigma-Tau Industrie Farmaceutiche Riunite S.p.A., priority 1990, dated 1994).

Experiments:
[1] = system: thymocytes; test: "In vitro-ex vivo" mytogen (PHA, Con A)-induced murine thymocite proliferation; parameters: species or system mice; conditions: 25 mg/kg/day i.p. from day -4 to day -1
Method: Test 7 Assessment of the "in vitro-ex vivo" effect of ST 754, ST 785 and ST 789 on the mytogen (PHA, Con A)-induced murine thymocite proliferation.
The compounds were administered at the dose of 25 mg/kg/day from day -4 to day -1 (thymus excision at day 0). This test was conducted following the procedure described for test 5.
The Stimulation Index (S.I.) is as defined in test 5.

[2] = system: DTH reaction vs. SRBC; test: Delayed type hypersensitivity test (DTH) vs. SRBC in mice; type: in vivo; conditions: 25 mg/kg/day i.p. from day -3 to day +3 respect to the immunization
Method: Test 6 Assessment of the effect of ST 785 and ST 789 on the delayed type hypersensitivity test (DTH).
Male B6 D2 F1 mice (Charles River, Italy) aged 6, 12 and 16 weeks (8 animals per group) were used.
The compounds were administered i.p., 25 mg/kg/day from day -3 to day +3 (immunization at day 0). Immunization was carried out by s.c. injection in the upper dorsal zone of the animals of 0.2 mL of SRBC (5×10^7 cells/mL).
Four days following the sensitizing injection, the animals were administered the challenge injection to bring about the delayed hypersensibility reaction. 50 μL of SRBC solution (2×10^9 cells/mL) were injected in the left hind foot-pad of the mice. The contralateral foot-pad received an equal volume of PBS. 24 hours after the challenge injection, the animals were sacrificed by cervical dislocation. The legs were amputated and the differences in weight between the left leg (treated with the challenge injection) and the contralateral leg were evaluated.
The mean of weight differences in the legs of the animals of the same experimental group was determined; the differences in the mean values calculated for each experimental group were processed using Student's "t" test (Biostatistics in Pharmacology, loc cit.).
The experimental procedure which was used is described by Miller, T. E. et al, (1973), Immunopotentiation with BCG. Modulation of the response to sheep red blood cells. J. Cancer Inst., 51:1669.

Structure (SMILES): N=C(N)NCCC[C@H](NC(=O)OCCCCCn1cnc2c(=O)[nH]cnc21)C(=O)O [ST 789, N-5-(ipoxantin-9-yl) pentyloxycarbonylarginine, reference compound]
- Body weight [1]: 22.8 ± 0.5 g
- Thymus weight [1]: 74.2 ± 4.4 mg
- Con A AUC (× 10^-3) ([1]; Con A-induced proliferation): 68 × 10^-3
- Con A I.S. (stimulation index) ([1]; Con A-induced proliferation): 1.10
- PHA AUC (area under curve) ([1]; PHA-induced proliferation): 3924
- PHA I.S. (stimulation index) ([1]; PHA-induced proliferation): 1.40
- Thymocytes No. (× 10^7) ([1]; pooled samples): 12.1 × 10^7
- Mean difference in weight (mg ± S.E.) between treated and untreated foot-pads [2]: 34.9 ± 0.76 mg
